System: LPS stimulated RAW 264.7 cells
Assay: In vitro efficacy: gene expression (qPCR) in LPS stimulated RAW cells treated with conditioned medium
Format: cell-based, murine
Settings: conditioned medium 24 h, LPS 500 ng/ml; respect to sc LPS or ibsc
Method: The murine macrophage cell line RAW 264.7 was purchased from the American Type Culture Collection (ATCC® TIB-71™). Cells were grown at 37° C. in DMEM high glucose medium (Thermo Fisher Scientific) supplemented with 10% heat-inactivated fetal bovine serum (FBS—Thermo Fisher Scientific), 1% penicillin/streptomycin (100 U ml-1/100 μg ml-1) (Thermo Fisher Scientific), in a humidified incubator of 5% CO2. When 70-80% confluency was reached, cells were detached mechanically with the scraper and subcultured in 75 cm2 flasks.
In order to evaluate the bioactivity of ibuprofen and T3 released from electrospun PLLA fibres conditioned medium was prepared ad described below. […] Three samples/group were analysed.
At the end of the treatments total RNA isolation was performed with the RNeasy Micro kit (Qiagen) following the manufacturer's instructions. Total RNA was eluted in RNase-free water and concentration estimated through absorbance values at 260, 280 and 320 nm (Nanodrop 2000 spectrophotometer, Thermo Scientific). […] Semi-quantitative real-time PCR was performed using the CFX96 real-time PCR system (Bio-Rad). […] Relative quantification of the target genes expression was calculated using the comparative threshold method 2^(—ΔΔCT). […]

CC(C)Cc1ccc(C(C)C(=O)O)cc1 (stereo not shown) [SC+IBU, Ibuprofen]
TNFα mRNA level (in words): comparable

— patent US11992560B2, “Electrospun fibers for a local release of an anti-inflammatory drug and a promyelinating drug” (ALMA MATER STUDIORUM—UNIVERSITÀ DI BOLOGNA, priority 2018, dated 2024)
